In patent publication US6458387B1, “Sustained release microspheres” (priority 1999, dated 2002):

Tests used:
[1] = In vitro release from leuprolide acetate/HSA microspheres (Example 5); format: physicochemical; settings: leuprolide acetate/HSA/dextran sulfate/PEG/PVP microspheres
Experimental: A 0.010 mL aliquot of a solution of 10-100 mg/mL leuprolide acetate in water (LHRH, TAP Pharmaceuticals, Deerfield, Ill.) was added to 0.168 mL of a 2-10% (weight/volume) solution of dextran sulfate in water (average molecular weight 500 kDa), and the solution was thoroughly mixed. To the leuprolide/dextran solution was added a 0.856 niL aliquot of a solution containing 25% (weight/volume) polyethylene glycol, having an average molecular weight of 3.35 kDa (Spectrum, Gardena, Calif.), and 25% (weight/volume) polyvinylpyrrolidone, having an average molecular weight of 40 kDa, in an aqueous solution of 0.1M sodium acetate, pH 5.5. The resulting solution was thoroughly mixed and allowed to stand for up to 30 minutes. A 0.25 mL aliquot of a 20% (weight/volume) solution of human serum albumin (Sigma Chemical Co., St. Louis, Mo.) in water was then added to the solution. The final solution was thoroughly mixed and placed in a water bath at between 70° C. and 90° C. for a period of time between 30 minutes and 3 hours.
In vitro release of leuprolide acetate was measured by centrifugation of microspheres and resuspension in a phosphate buffered saline release medium.

[2] = human serum albumin microspheres; 0.01M, 0.1M or 1M zinc sulfate
Experimental: Nafarelin acetate (Roche Laboratories, Nutley, N.J.) was dissolved in deionized water to produce a 10 mg/ml solution.
To 1 mg of nafarelin acetate was added 10 mg of the human serum albumin microspheres. The mixture was vortexed and mixed for 16 hours at 4° C. A 3M ammonium sulfate solution was added to the mixture to a final concentration of 0.5M and vortexed and mixed for 15 minutes at ambient temperature.
The mixtures were centrifuged, supernatant decanted and pellet resuspended in deionized water three times to wash the microspheres.

[3] = HSA microspheres, carbonyl diimidazole coupling
Experimental: Carbonyl diimidazole (100 mg, Sigma Chemical Co., St. Louis, Mo.) was added to a solution of 36 mg of the antiviral drug Virazole Registered TM (ICN Pharmaceuticals, Inc., Costa Mesa, Calif.) in 0.2 ml of dimethylformamide (DMF). The resulting mixture was allowed to stand at room temperature for four hours. To the mixture was added a mixture of 0.2 ml of human serum albumin (HSA) (25%, Armour Pharmaceutical Co., Collegeville, Pa.) and 0.4 ml of deionized water. The mixture was incubated for 30 minutes at room temperature, for 30 minutes at 37° C., and for 30 minutes at 58° C. and then cooled to room temperature. Particles were isolated by centrifugation, washed with deionized water three times and resuspended in 20 ml of water.

[4] = set-up: species or system dogs; settings: dog
Experimental: The microspheres were formed and precipitated from solution. […] Estradiol was then loaded into human serum albumin microspheres at 3 different weight percent loadings. The estradiol was dissolved in ethyl alcohol and incubated in the presence of the albumin microspheres. […] The 10% by weight estradiol containing microspheres contained 1 mg of estradiol and 8.33 mg of Human Serum Albumin (HSA). The 49% by weight estradiol containing microspheres contained 8.15 mg of estradiol and 8.33 mg of HSA. The 77% by weight estradiol containing microspheres contained 27.68 mg of estradiol and 8.33 mg of HSA
The microspheres were injected into five dogs and the resulting serum concentrations were determined by radioimmuno assay for estradiol.

| SMILES | effect of additive on release of protein and peptide from the microspheres [1] | percentage of drug incorporated into the particles [3] | also measured |
| --- | --- | --- | --- |
| O=S(=O)([O-])[O-].[Zn+2] [zinc sulfate] | retarded the release |  | effect of additive on rate of release of nafarelin acetate [2]: reduced the rate of release |
| CO[C@H]1/C=C/O[C@@]2(C)Oc3c(C)c(O)c4c(O)c(c(/C=N/N5CCN(C)CC5)c(O)c4c3C2=O)NC(=O)/C(C)=C\C=C\[C@H](C)[C@H](O)[C@@H](C)[C@@H](O)[C@@H](C)[C@H](OC(C)=O)[C@@H]1C [Rifampicin TM, 3-[4-methylpiperazinyliminomethyl] rifamycin] |  | greater than 6.8% |  |
| NC(=O)c1ncn([C@@H]2O[C@H](CO)[C@@H](O)[C@H]2O)n1 [Virazole Registered TM] |  | 10% |  |
| C[C@]12CC[C@@H]3c4ccc(O)cc4CC[C@H]3[C@@H]1CC[C@@H]2O [estradiol control, estradiol] |  |  | half life of estradiol in vivo [4]: shortest half life |
| CCCCCCCC(=O)O [caprylic acid] | retarded the release |  |  |
